Source: publication PMC8632988, “Inhibition of SYK and cSrc kinases can protect bone and cartilage in preclinical models of osteoarthritis and rheumatoid arthritis” (Scientific Reports, 2021)
Values joined by “and” are separate entries in the source; they are usually repeats but may differ in a detail not shown here. Identical values can stand only once.

Legend:
Lewis rats, CIA model = experiment: Collagen-induced semi-established arthritis model in rats; assay type: in vivo, rat; conditions: for Bone Resorption score (0=normal to 5=severe) / Cartilage Damage score (0=normal to 5=severe) / Inflammation score (0=normal to 5=severe) / Pannus score (0=normal to 5=severe) / Summed Histopathology Scores: individual joint (animal, R/L); for Bone Resorption score, % inhibition / Cartilage Damage score, % inhibition / Inflammation score, % inhibition / Pannus score, % inhibition / Summed Histopathology Scores, % inhibition: vs vehicle
Protocol: Rat CIA model was performed was performed at Pharmenterprises, Russia and approved by Ethics Committee of Pharmenterprises. Female Lewis rats with body weight of 164–183 g (Charles River Laboratories, Inc., Wilmington, MA) were injected with porcine type II collagen (Chondrex) emulsified with Freund’s Incomplete Adjuvant (Sigma Aldrich) at two sites at the base of the tail according to standard protocol. On day 7, the rats were boosted with a second subcutaneous injection. On day 6 of the study, rats were randomized by body weight into six groups: a control group of four, and five treatment groups of eight. […] Disease progression was monitored via daily ankle thickness measurements. At study termination on day 16 rats were anesthetized with Isoflurane, bled by vacutainer through the descending aorta to exsanguinate and then euthanized for tissue collection. Hind paws were transected at the level of the medial and lateral malleolus, weighed, and collected for microscopy.
[…]

DYRK4 = molecular target: T1, DYRK4 (Homo sapiens, UniProt Q9NR20); experiment: Kinase selectivity profile assay; assay type: biochemical; conditions: 500 nM; relative to DMSO; read-out: Residual enzymatic activity
T1 construct: purchased Reaction Biology Corporation
Protocol: The activity of MT-SYK-03 against cSrc kinase and selectivity profile towards other 341 kinases was determined at Reaction Biology Corporation (Malvern, PA, USA) using the standard kinase assay protocol. […] Kinase activity data was expressed as the percent remaining kinase activity in test samples compared to vehicle (dimethyl sulfoxide) reactions based on the radioactivity of reaction products (see Table S2). Experiment was replicated twice.

c-Kit = molecular target: T2, c-Kit (Homo sapiens, UniProt P10721); experiment: Kinase selectivity profile assay; assay type: biochemical; conditions: 500 nM, relative to DMSO
T2 construct: purchased Reaction Biology Corporation
Protocol: (§1) The activity of MT-SYK-03 against cSrc kinase and selectivity profile towards other 341 kinases was determined at Reaction Biology Corporation (Malvern, PA, USA) using the standard kinase assay protocol. […]; unbound phosphate was removed by extensive washing of filters in phosphoric acid. Kinase activity data was expressed as the percent remaining kinase activity in test samples compared to vehicle (dimethyl sulfoxide) reactions based on the radioactivity of reaction products (see Table S2). Experiment was replicated twice.

CAMK2g = molecular target: T3, CAMK2g (Homo sapiens, UniProt Q13555); experiment: Kinase selectivity profile assay; assay type: biochemical; conditions: 500 nM; relative to DMSO; read-out: Residual enzymatic activity
T3 construct: purchased Reaction Biology Corporation
Protocol: as §1

P38g = molecular target: T4, P38g (Homo sapiens, UniProt P53778); experiment: Kinase selectivity profile assay; assay type: biochemical; conditions: 500 nM; relative to DMSO; read-out: Residual enzymatic activity
T4 construct: purchased Reaction Biology Corporation
Protocol: as §1

MEK2 = molecular target: T5, MEK2 (Homo sapiens, UniProt P36507); experiment: Kinase selectivity profile assay; assay type: biochemical; conditions: 500 nM; relative to DMSO; read-out: Residual enzymatic activity
T5 construct: purchased Reaction Biology Corporation
Protocol: as §1

IRR/INSRR = molecular target: T6, IRR/INSRR (Homo sapiens, UniProt P14616); experiment: Kinase selectivity profile assay; assay type: biochemical; conditions: 500 nM; relative to DMSO; read-out: Residual enzymatic activity
T6 construct: purchased Reaction Biology Corporation
Protocol: as §1

MKK6 = molecular target: T7, MKK6 (Homo sapiens, UniProt P52564); experiment: Kinase selectivity profile assay; assay type: biochemical; conditions: 500 nM; relative to DMSO; read-out: Residual enzymatic activity
T7 construct: purchased Reaction Biology Corporation
Protocol: as §1

BMPR2 = molecular target: T8, BMPR2 (Homo sapiens, UniProt Q13873); experiment: Kinase selectivity profile assay; assay type: biochemical; conditions: 500 nM; relative to DMSO; read-out: Residual enzymatic activity
T8 construct: purchased Reaction Biology Corporation
Protocol: as §1

LIMK2 = molecular target: T9, LIMK2 (Homo sapiens, UniProt P53671); experiment: Kinase selectivity profile assay; assay type: biochemical; conditions: 500 nM; relative to DMSO; read-out: Residual enzymatic activity
T9 construct: purchased Reaction Biology Corporation
Protocol: as §1

PASK = molecular target: T10, PASK (Homo sapiens, UniProt Q96RG2); experiment: Kinase selectivity profile assay; assay type: biochemical; conditions: 500 nM; relative to DMSO; read-out: Residual enzymatic activity
T10 construct: purchased Reaction Biology Corporation
Protocol: as §1

ULK3 = molecular target: T11, ULK3 (Homo sapiens, UniProt Q6PHR2); experiment: Kinase selectivity profile assay; assay type: biochemical; conditions: 500 nM; relative to DMSO; read-out: Residual enzymatic activity
T11 construct: purchased Reaction Biology Corporation
Protocol: as §1

MST3/STK24 = molecular target: T12, MST3/STK24 (Homo sapiens, UniProt Q9Y6E0); experiment: Kinase selectivity profile assay; assay type: biochemical; conditions: 500 nM; relative to DMSO; read-out: Residual enzymatic activity
T12 construct: purchased Reaction Biology Corporation
Protocol: as §1

FGR = molecular target: T13, FGR (Homo sapiens, UniProt P09769); experiment: Kinase selectivity profile assay; assay type: biochemical
T13 construct: purchased Reaction Biology Corporation (assay service)
Protocol: as §1

NEK3 = molecular target: T14, NEK3 (Homo sapiens, UniProt P51956); experiment: Kinase selectivity profile assay; assay type: biochemical; conditions: 500 nM; relative to DMSO; read-out: Residual enzymatic activity
T14 construct: purchased Reaction Biology Corporation
Protocol: as §1

HIPK2 = molecular target: T15, HIPK2 (Homo sapiens, UniProt Q9H2X6); experiment: Kinase selectivity profile assay; assay type: biochemical; conditions: 500 nM; relative to DMSO; read-out: Residual enzymatic activity
T15 construct: purchased Reaction Biology Corporation
Protocol: as §1

MELK = molecular target: T16, MELK (Homo sapiens, UniProt Q14680); experiment: Kinase selectivity profile assay; assay type: biochemical; conditions: 500 nM; relative to DMSO; read-out: Residual enzymatic activity
T16 construct: purchased Reaction Biology Corporation
Protocol: as §1

STK32B/YANK2 = molecular target: T17, STK32B/YANK2 (Homo sapiens, UniProt Q9NY57); experiment: Kinase selectivity profile assay; assay type: biochemical; conditions: 500 nM; relative to DMSO; read-out: Residual enzymatic activity
T17 construct: purchased Reaction Biology Corporation
Protocol: as §1

PKN1/PRK1 = molecular target: T18, PKN1/PRK1 (Homo sapiens, UniProt Q16512); experiment: Kinase selectivity profile assay; assay type: biochemical; conditions: 500 nM; relative to DMSO; read-out: Residual enzymatic activity
T18 construct: purchased Reaction Biology Corporation
Protocol: as §1

[1] = knee, day 16, MT-SYK-03 103 mg/kg PO BID + MTX Veh PO QD, 103 mg/kg
[2] = knee, day 16, MT-SYK-03 103 mg/kg PO BID + MTX Veh PO QD
[3] = knee, day 16, MT-SYK-03 207 mg/kg PO BID + MTX Veh PO QD, group mean
[4] = knee, day 16, MT-SYK-03 207 mg/kg PO BID + MTX Veh PO QD, 207 mg/kg
[5] = knee, day 16, MT-SYK-03 207 mg/kg PO BID + MTX Veh PO QD

T2 sequence (P10721 26-976): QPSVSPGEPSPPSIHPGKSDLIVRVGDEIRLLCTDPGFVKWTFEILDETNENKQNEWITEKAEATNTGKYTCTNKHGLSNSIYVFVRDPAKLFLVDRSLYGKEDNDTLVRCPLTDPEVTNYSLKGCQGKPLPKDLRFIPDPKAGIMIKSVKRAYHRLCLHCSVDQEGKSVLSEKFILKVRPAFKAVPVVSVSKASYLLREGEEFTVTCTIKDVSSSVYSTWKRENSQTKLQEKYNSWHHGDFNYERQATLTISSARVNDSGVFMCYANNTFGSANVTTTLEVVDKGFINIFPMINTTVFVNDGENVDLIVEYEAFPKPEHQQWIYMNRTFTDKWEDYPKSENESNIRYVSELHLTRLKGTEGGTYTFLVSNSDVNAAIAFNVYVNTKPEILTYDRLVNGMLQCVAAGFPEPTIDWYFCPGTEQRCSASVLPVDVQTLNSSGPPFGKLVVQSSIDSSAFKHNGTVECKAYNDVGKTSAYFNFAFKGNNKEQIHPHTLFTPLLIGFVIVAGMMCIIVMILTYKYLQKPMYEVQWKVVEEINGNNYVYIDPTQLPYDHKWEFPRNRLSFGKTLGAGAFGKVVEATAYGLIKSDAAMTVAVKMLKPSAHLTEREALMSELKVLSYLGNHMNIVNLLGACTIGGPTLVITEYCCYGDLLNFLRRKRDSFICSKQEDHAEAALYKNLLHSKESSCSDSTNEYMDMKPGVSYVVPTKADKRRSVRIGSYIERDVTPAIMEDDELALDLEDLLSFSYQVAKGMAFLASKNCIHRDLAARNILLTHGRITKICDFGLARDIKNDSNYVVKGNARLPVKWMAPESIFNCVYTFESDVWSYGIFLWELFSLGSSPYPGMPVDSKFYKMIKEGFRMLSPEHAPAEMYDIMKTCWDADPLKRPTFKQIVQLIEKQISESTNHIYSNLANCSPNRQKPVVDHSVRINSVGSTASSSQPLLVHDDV
T13 sequence (P09769 whole entry): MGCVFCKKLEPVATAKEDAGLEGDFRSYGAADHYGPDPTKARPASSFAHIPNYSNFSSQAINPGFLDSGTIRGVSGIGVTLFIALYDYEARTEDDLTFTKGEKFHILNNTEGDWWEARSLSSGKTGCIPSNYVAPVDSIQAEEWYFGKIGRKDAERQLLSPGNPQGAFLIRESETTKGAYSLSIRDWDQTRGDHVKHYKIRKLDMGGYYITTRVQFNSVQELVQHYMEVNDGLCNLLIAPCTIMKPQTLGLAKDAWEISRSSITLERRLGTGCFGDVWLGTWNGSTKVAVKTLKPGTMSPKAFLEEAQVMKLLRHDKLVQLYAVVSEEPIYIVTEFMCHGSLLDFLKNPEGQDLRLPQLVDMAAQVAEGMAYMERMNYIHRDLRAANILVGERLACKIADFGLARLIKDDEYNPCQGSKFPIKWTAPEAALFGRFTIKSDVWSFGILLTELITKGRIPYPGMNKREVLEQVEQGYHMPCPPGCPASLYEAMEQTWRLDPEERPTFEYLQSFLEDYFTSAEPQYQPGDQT
T9 sequence (P53671 whole entry): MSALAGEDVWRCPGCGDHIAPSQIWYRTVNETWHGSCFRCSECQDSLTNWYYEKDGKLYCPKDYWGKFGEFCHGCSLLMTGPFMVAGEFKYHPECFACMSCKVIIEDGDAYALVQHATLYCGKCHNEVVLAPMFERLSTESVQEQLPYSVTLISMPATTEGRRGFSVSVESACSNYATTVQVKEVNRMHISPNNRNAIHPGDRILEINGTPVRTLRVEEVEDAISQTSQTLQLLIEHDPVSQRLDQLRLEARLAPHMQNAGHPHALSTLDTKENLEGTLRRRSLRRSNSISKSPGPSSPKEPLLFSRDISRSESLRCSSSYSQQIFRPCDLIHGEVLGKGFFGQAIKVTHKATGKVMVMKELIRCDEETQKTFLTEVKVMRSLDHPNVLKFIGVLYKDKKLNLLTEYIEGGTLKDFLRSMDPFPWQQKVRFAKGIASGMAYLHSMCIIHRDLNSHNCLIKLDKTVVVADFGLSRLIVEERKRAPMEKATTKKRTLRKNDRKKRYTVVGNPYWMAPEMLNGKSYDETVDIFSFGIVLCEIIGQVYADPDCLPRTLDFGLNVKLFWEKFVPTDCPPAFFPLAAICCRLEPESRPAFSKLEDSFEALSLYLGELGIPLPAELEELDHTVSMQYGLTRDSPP
T15 sequence (Q9H2X6 whole entry): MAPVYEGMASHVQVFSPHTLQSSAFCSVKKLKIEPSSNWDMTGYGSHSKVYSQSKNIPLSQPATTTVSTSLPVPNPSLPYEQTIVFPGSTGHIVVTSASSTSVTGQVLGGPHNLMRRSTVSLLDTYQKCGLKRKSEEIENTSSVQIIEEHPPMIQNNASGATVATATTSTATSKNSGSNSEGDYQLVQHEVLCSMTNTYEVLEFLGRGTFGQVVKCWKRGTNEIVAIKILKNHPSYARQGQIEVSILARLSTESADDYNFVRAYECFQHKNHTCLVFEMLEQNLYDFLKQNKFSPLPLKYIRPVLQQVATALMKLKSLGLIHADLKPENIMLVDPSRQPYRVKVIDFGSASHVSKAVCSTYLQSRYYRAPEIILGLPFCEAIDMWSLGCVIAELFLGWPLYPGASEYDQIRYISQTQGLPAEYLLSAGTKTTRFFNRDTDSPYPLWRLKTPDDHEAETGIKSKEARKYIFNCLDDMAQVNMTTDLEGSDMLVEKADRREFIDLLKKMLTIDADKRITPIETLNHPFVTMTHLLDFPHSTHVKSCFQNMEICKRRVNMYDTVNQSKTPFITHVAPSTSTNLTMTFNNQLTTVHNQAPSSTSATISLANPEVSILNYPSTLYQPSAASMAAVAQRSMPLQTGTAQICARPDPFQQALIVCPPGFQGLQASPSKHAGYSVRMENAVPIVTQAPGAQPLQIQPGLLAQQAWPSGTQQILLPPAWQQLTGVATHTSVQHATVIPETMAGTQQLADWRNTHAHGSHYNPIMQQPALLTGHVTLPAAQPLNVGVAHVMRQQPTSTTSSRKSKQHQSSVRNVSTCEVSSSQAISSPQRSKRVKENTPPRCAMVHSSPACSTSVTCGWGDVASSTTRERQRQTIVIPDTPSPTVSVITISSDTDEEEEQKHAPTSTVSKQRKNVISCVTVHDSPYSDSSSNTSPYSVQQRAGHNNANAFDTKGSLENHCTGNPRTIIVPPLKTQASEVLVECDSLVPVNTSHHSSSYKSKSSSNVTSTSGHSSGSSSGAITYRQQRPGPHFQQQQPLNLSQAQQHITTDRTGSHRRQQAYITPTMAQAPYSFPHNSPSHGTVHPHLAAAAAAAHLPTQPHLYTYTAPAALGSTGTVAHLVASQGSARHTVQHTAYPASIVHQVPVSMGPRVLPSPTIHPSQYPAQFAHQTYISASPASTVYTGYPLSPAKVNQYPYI
T16 sequence (Q14680 whole entry): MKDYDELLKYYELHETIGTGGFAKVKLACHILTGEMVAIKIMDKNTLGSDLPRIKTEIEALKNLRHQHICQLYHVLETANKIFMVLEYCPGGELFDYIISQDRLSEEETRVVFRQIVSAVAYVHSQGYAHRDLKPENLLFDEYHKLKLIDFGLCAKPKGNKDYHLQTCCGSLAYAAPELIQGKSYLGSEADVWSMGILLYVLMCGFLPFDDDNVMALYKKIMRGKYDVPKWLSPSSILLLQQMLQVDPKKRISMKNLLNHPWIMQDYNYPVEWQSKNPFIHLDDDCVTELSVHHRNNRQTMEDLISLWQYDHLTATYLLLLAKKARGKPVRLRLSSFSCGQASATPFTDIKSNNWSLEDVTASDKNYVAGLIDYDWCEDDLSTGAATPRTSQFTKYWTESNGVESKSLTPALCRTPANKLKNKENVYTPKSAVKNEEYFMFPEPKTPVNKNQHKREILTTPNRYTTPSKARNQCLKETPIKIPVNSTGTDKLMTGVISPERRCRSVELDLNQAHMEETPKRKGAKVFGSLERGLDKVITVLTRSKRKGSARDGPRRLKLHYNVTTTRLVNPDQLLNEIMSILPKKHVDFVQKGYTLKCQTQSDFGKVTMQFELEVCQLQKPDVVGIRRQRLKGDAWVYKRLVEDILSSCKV
T5 sequence (P36507 whole entry): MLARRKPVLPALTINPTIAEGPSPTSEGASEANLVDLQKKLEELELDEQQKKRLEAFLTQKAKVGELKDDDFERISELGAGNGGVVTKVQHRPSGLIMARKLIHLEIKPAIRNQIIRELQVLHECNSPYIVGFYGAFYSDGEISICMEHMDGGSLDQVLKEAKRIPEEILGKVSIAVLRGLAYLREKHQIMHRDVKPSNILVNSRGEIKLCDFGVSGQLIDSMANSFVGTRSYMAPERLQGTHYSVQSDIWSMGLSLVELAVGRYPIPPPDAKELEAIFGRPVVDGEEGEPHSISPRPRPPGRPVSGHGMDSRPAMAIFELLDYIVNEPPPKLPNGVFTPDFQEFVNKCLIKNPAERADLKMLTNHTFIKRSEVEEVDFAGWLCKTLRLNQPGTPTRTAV
T1 sequence (Q9NR20 whole entry): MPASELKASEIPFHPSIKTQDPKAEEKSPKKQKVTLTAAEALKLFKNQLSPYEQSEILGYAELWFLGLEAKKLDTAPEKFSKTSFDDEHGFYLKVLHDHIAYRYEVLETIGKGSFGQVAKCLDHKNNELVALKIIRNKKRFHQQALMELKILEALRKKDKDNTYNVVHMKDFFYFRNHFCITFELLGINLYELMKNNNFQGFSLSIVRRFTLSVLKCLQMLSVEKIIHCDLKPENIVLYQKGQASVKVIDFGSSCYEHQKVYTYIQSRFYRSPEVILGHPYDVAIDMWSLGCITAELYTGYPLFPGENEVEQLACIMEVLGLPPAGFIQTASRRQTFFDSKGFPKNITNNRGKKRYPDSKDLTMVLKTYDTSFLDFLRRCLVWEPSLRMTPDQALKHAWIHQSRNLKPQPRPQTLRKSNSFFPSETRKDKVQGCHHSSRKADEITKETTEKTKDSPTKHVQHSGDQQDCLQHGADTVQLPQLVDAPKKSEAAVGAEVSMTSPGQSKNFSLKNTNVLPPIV

COc1cc(Nc2ncnc(Nc3cc4c(cn3)NC(=O)C(C)(C)O4)n2)cc(OC)c1OC [MT-SYK-03]
Summed Histopathology Scores, Mean (Lewis rats, CIA model; knee, day 16, MT-SYK-03 103 mg/kg PO BID + MTX Veh PO QD, group mean): 5.19 | Bone Resorption score (0=normal to 5=severe) (Lewis rats, CIA model; [1]): 1 and 2 and 0 and 0.5 | Cartilage Damage score (0=normal to 5=severe) (Lewis rats, CIA model; [1]): 2 and 0 and 1 and 0.5 | Inflammation score (0=normal to 5=severe) (Lewis rats, CIA model; [1]): 5 and 0.5 and 4 and 3 and 2 | Pannus score (0=normal to 5=severe) (Lewis rats, CIA model; [1]): 1 and 2 and 0 and 0.5 | Summed Histopathology Scores (Lewis rats, CIA model; [1]): 9 and 11 and 0.5 and 7 and 8 and 5 and 4.5 and 3 and 1 | Bone Resorption score, % inhibition (Lewis rats, CIA model; [2]): 9% | Cartilage Damage score, % inhibition (Lewis rats, CIA model; [2]): 21% | Inflammation score, % inhibition (Lewis rats, CIA model; [2]): 13% | Pannus score, % inhibition (Lewis rats, CIA model; [2]): 4% | Summed Histopathology Scores, % inhibition (Lewis rats, CIA model; [2]): 13% | Bone Resorption score, Mean (Lewis rats, CIA model; [3]): 0.16 | Cartilage Damage score, Mean (Lewis rats, CIA model; [3]): 0.56 | Inflammation score, Mean (Lewis rats, CIA model; [3]): 1.59 | Pannus score, Mean (Lewis rats, CIA model; [3]): 0.41 | Summed Histopathology Scores, Mean (Lewis rats, CIA model; [3]): 2.63 | Bone Resorption score (0=normal to 5=severe) (Lewis rats, CIA model; [4]): 0.5 and 1 and 0 | Cartilage Damage score (0=normal to 5=severe) (Lewis rats, CIA model; [4]): 1 and 0 and 0.5 | Inflammation score (0=normal to 5=severe) (Lewis rats, CIA model; [4]): 4 and 1 and 0 and 2 and 3 and 0.5 | Pannus score (0=normal to 5=severe) (Lewis rats, CIA model; [4]): 0.5 and 1 and 0 | Summed Histopathology Scores (Lewis rats, CIA model; [4]): 6 and 7 and 2.5 and 0 and 3 and 4.5 and 2 and 5 and 5.5 and 3.5 and 0.5 | Bone Resorption score, ANOVA to Vehicle (Lewis rats, CIA model; knee, day 16, MT-SYK-03 207 mg/kg PO BID + MTX Veh PO QD, p value): p < 0.05 | Bone Resorption score, % inhibition (Lewis rats, CIA model; [5]): 78% | Cartilage Damage score, % inhibition (Lewis rats, CIA model; [5]): 57% | Inflammation score, % inhibition (Lewis rats, CIA model; [5]): 50% | Pannus score, % inhibition (Lewis rats, CIA model; [5]): 46% | Summed Histopathology Scores, % inhibition (Lewis rats, CIA model; [5]): 56% | Histopathology scores for cartilage damage and bone resorption, ankles and knees (Lewis rats, CIA model; rat CIA, day 16): chondroprotective and antiresorptive effects | Histopathology scores of inflammation and pannus formation (Lewis rats, CIA model; rat CIA, day 16): smaller | Relative weights of thymus, liver and spleen (Lewis rats, CIA model; rat CIA, day 16): statistically identical across all groups | remaining activity at 0.5 µM (DYRK4): 104% | Residual enzymatic activity (c-Kit): 69.2% | remaining activity at 0.5 µM (c-Kit; read-out: Residual enzymatic activity): > 54% | remaining activity at 0.5 µM (CAMK2g): 100% | remaining activity at 0.5 µM (P38g): 101% | remaining activity at 0.5 µM (MEK2): 97.2% | remaining activity at 0.5 µM (IRR/INSRR): 89% | remaining activity at 0.5 µM (MKK6): 116% | remaining activity at 0.5 µM (BMPR2): 90% | remaining activity at 0.5 µM (LIMK2): 84.9% | remaining activity at 0.5 µM (PASK): 102% | remaining activity at 0.5 µM (ULK3): 74.9% | remaining activity at 0.5 µM (MST3/STK24): 108% | remaining activity at 0.5 µM (FGR; 500 nM, relative to DMSO, read-out: Residual enzymatic activity): 22.6% | IC50 (FGR; 10-dose mode, threefold serial dilution from 10 μM): 9 nM | remaining activity at 0.5 µM (NEK3): 72% | remaining activity at 0.5 µM (HIPK2): 103% | remaining activity at 0.5 µM (MELK): 86.6% | remaining activity at 0.5 µM (STK32B/YANK2): 103% | remaining activity at 0.5 µM (PKN1/PRK1): 104%
